Reference: article PMC9256669, “Monomethyl auristatin antibody and peptide drug conjugates for trimodal cancer chemo-radio-immunotherapy” (Nature Communications, 2022)
“And” between values parts separate entries of the source, which are not always exact repeats. Equal entries are not always repeated. Where two headings read alike, the source gives them in different places. Non-standard residues stand in square brackets, D forms with d. Residues, ends and D or L forms follow the SMILES beside them. *: point of attachment. Dolaproine = CO[C@@H]([C@@H]1CCCN1)[C@@H](C)C(=O)O; Dil = CC[C@H](C)[C@H](NC)[C@@H](CC(=O)O)OC; X1 = C[C@@H](N*)[C@@H](O)c1ccccc1; NMeV = CN[C@H](C(=O)O)C(C)C

Tests used:
[1] = tested on: LL/2 cells; assay: Clonogenic survival with MMAE and 2 Gy (SF2); assay type: cell-based, murine; parameters: key: fraction surviving 2 Gy relative to non-irradiated cells
Protocol: Cells were treated with MMAE for 24 h and then irradiated with 2 Gy. […] Following IR, cells were counted, re-plated at varying cell numbers in drug free media. 10–14 days after initial seeding formed colonies were methanol fixed, stained with crystal violet, and counted. Surviving fraction at 2 Gy (SF2) was calculated as the fraction of cells surviving 2 Gy compared to non-irradiated cells. […]

[2] = tested on: B16 tumors
Description: (§1) LL/2 cells treated with dose range of MMAE overnight and then […] in drug free media for 7-10 days to allow for visualized colonies to form.
(§2) Statistical significances calculated using one-way ANOVA with Tukey’s multiple comparisons test. 0.9 b) Cell cycle analysis […]
(§3) of MMAE treated LL/2 cells, mean ± SD, n=2. […]
(§4) experiments. c) Clonogenic survival of LL/2 cells treated with MMAE and 2 Gy (SF2). Cell Days viability normalized to non-irradiated cells for each drug condition and plotted as mean fractional survival ± SEM, n=6. Statistical significances calculated using one-way ANOVA with Sidak’s multiple comparisons test. d) Tumor volumes (n=10) and mouse body weights (n=5) of mice from experiments in Fig. 3e. Tumor volumes plotted as mean volume of surviving mice ± SEM.
(§5) Mouse body weight were normalized to each mouse’s weight on day 0, i.e. tumor implantation.
(§6) Data plotted as mean fractional body weight ± SEM. e) Mouse body weights of mice (n=5) from experiments in Fig. 4h were normalized to each mouse’s weight on day of tumor implantation.
(§7) Data is plotted as individual normalized body weights. f) Mouse body weights of mice from experiments in Fig. 5e, f were normalized to each mouse’s weight on day of tumor implantation.
(§8) Source data are provided in Source Data file.

[3] = tested on: LL/2 tumors; conditions: for Mouse survival, status: individual mice, status at the day, Figure 3e
Description: as §1, §2, §3, §4, §5, §6, §7, §8

[4] = tested on: MC38 tumors
Description: as §1, §2, §3, §4, §5, §6, §7, §8

[5] = tested on: MC38 tumors; conditions: status at the day printed in the same line, one line per mouse
Protocol: (§10) MOC1, B16, LL/2, and MC38 tumor cells were injected subcutaneously into the hindlimbs of 6-week-old female C57BL/6 albino mice in 100 µl of 1:1 Matrigel (BD) and PBS solution. Fractionated IR was delivered focally to the tumor-bearing hindlimbs (3 Gy to MC38 tumors and 5 Gy to LL/2 and B16 tumors) as indicated in figure legends using a PXI X-RAD 225 XL irradiator at maximal dose rate of 3 Gy/min with a beam-conditioning aluminum filter (Precision X-ray Irradiation). For RAG1 KO studies, 6-week-old female Rag1^tm1Mom mice were injected subcutaneously with tumor cells in their hindlimbs (Jackson Labs). For CD8 depletion studies, mice were i.p. injected with anti-CD8 (BioXCell #BE0117) at 10 mg/kg on days −6, −5 and −4 tumor cell implant and then weekly starting on day after tumor cells were injected or control antibody. […] Tumor volumes were measured and calculated using the formula as ½ * length * width^2. Mice were sacrificed when tumor volume reached >1500 mm^3, maximal tumor volume approved on our protocol for subcutaneous tumors.

[6] = Tumor drug measurement (MMAE by LC-MS/MS) after CDX3379-MMAE; assay type: in vivo, mouse; parameters: unit not given here; conditions: orthotopic CAL27 tongue xenografts (methods: CAL27 PIK3CA H1047R cells, NOD SCID), 2.5 nmoles CDX3379-MMAE i.v., tumors harvested 48 h, one value per tumor, vehicle 1.606, 2.873, a reviewer reads roughly 100 nM
Protocol: For CDX3379-MMAE drug measurements, 6-week-old female NOD SCID (University of California San Diego Animal Care Program) were injected orthotopically into the tongue with 150,000 CAL27 PIK3CA H1047R expressing cells in 20 µl of DMEM. After 10 days, mice were intravenously (i.v.) injected through the tail vein with 2.5 nmole of CDX3379-MMAE in 50 µl of PBS. […] Tumors were excised on days indicated in figure legends, weighed, and homogenized in 10 v/w of 2% acetic acid in 1:1 acetonitrile:water with a point sonicator (Fisher Scientific) using an amplitude range of 5–15% for 20 s on ice. Homogenates were centrifuged ([…], 10 min), supernatants collected for drug concentration measurements using LC–MS/MS. Drug concentration was determined by LC–MS/MS with Luna-2 C18 column and Agilent Trap XCT mass spectrometer. For MMAE tissue concentrations, integrated ion currents for m/z 682.4, 496.4 and m/z 686.4, 506.4 extracted from fragmented m/z 740.4 and 718.4, respectively, were combined. The total ion current was fit to a standard curve generated for each drug to quantitate tissue drug concentration.

[7] = tested on: B16 tumors; assay: Subcutaneous tumor therapy, ADC monotherapy, mouse survival; assay type: in vivo, C57BL/6 mice
Protocol: as §10

[8] = tested on: CAL27 and Detroit 562 tumor xenografts; conditions: immune-deficient mice with HER3 expressing human tumor xenografts
Protocol: (§9) All animal work was done in compliance with the University of California San Diego Institutional Animal Use and Care Committee under protocol #S15290. Mice were housed in individually ventilated and micro-isolator cages supplied with acidified water and fed 5053 irradiated PicoLab Rodent Diet 20. Temperature for laboratory mice in housing was 18–23 °C with humidity 40–60%. Housing room is maintained on a 12-h light/dark cycle. […] For imaging, mice were anesthetized (1:1 mixture of 100 mg/ml of ketamine and 5 mg/ml of midazolam). Animals were imaged using a Maestro Small Animal Imager (CRI) with excitation filter of 607/36 and 633 nm long pass emission filter with dichroic filter tuned to 670 nm for Cy5 images only. Imaging was done both with skin on and after skin removal to decrease autofluorescence and scattering. Exposure time for Cy5 signal capture for tumor models was as follows: CAL27 for 800 ms, MOC1 for 200 ms and MOC2 for 1500 ms.
as §8

[9] = tested on: MOC1, MOC2 and LL/2 tumors; conditions: immune-competent mice, not in HER3 negative LL/2 tumors
Protocol: as §9, §8

[10] = 10 nmoles ACPP-MMAE x 2 doses + IR 5 Gy/day x 3
[11] = 10 nmoles ACPP-MMAE x 2 doses, no IR
[12] = ACPP-MMAE alone, individual mice, status at the day, Figure 3e

CC[C@H](C)[C@@H]([C@@H](CC(=O)N1CCC[C@H]1[C@H](OC)[C@@H](C)C(=O)N[C@H](C)[C@@H](O)c1ccccc1)OC)N(C)C(=O)[C@@H](NC(=O)[C@@H](NC)C(C)C)C(C)C [MMAE, monomethyl auristatin E] (H-[NMeV]V[Dil][Dolaproine]-X1)
SF2 ([1]; MMAE 1 nM with 2 Gy, replicate 1): 0.48 | SF2 ([1]; MMAE 1 nM with 2 Gy, replicate 2): 0.48 | SF2 ([1]; MMAE 1 nM with 2 Gy, replicate 3): 0.66 | SF2 ([1]; MMAE 1 nM with 2 Gy, replicate 4): 0.44 | SF2 ([1]; MMAE 1 nM with 2 Gy, replicate 5): 0.62 | SF2 ([1]; MMAE 1 nM with 2 Gy, replicate 6): 0.64 | SF2 ([1]; MMAE 2 nM with 2 Gy, replicate 1): 0.46 | SF2 ([1]; MMAE 2 nM with 2 Gy, replicate 2): 0.53 | SF2 ([1]; MMAE 2 nM with 2 Gy, replicate 3): 0.53 | SF2 ([1]; MMAE 2 nM with 2 Gy, replicate 4): 0.41 | SF2 ([1]; MMAE 2 nM with 2 Gy, replicate 5): 0.43 | SF2 ([1]; MMAE 2 nM with 2 Gy, replicate 6): 0.43 | SF2 ([1]; MMAE 3 nM with 2 Gy, replicate 1): 0.29 | SF2 ([1]; MMAE 3 nM with 2 Gy, replicate 2): 0.45 | SF2 ([1]; MMAE 3 nM with 2 Gy, replicate 3): 0.38 | SF2 ([1]; MMAE 3 nM with 2 Gy, replicate 4): 0.45 | SF2 ([1]; MMAE 3 nM with 2 Gy, replicate 5): 0.26 | SF2 ([1]; MMAE 3 nM with 2 Gy, replicate 6): 0.38

cyclo(RGD)fc-MC-HN-peg8-e9-oPLGC(Me)AG-r9-c-(MC-VC-PABC-MMAE)-CONH2 [ACPP-MMAE]
survival and tumor control, + IR [2, 10]: long-term survival and tumor control | anti-tumor efficacy, monotherapy [2, 11]: lacked significant anti-tumor efficacy | Mouse survival, status [2, 12]: 1 | survival and tumor control, + IR [3, 10]: modestly prolonged mouse survival and tumor control | anti-tumor efficacy, monotherapy [3, 11]: lacked significant anti-tumor efficacy | Mouse survival, status ([3]; ACPP-MMAE + IR): 1 | Mouse survival, status ([3]; ACPP-MMAE alone): 1 | survival and tumor control, + IR ([4]; 10 nmoles ACPP-MMAE x 2 doses + IR 3 Gy/day x 3): long-term survival and tumor control | anti-tumor efficacy, monotherapy [4, 11]: lacked significant anti-tumor efficacy | Mouse survival, status [4, 12]: 1 | Mouse survival, status ([5]; ACPP-MMAE + IR + αPD1): 1 and 0 | Mouse survival, status ([5]; ACPP-MMAE + IR): 1

CDX3379-MMAE: anti-HER3 antibody CDX3379 with 4 MMAE per antibody via MC-VC-PABC linker, labeled with Cy5
Tumor MMAE concentration [6]: 124.8 and 143.8 and 123.3 and 91.37 | anti-tumor activity as measured by mouse survival [7]: modest anti-tumor activity | localization of i.v. injected Cy5-labeled ADC [8]: localized to tumor bearing hindlimbs | localization of i.v. injected Cy5-labeled ADC [9]: localized to HER3 expressing murine syngeneic tumors
